Experimental data reported in patent publication US11911521B2, “Antibacterial nanofiber” (UNIVERSITY OF MANITOBA, priority 2017, dated 2024).

Experiments:
Format in all cases: cell-based
[1] = tested on: ATCC-PCS-201 neonatal human dermal fibroblast; experiment: In vitro cytotoxicity assay (MTT) on fibroblast cells; conditions: after 24 h of contact, free BTAC at 34 mg/L
Method: An in vitro cytotoxicity assay was conducted on fibroblast cells (ATCC-PCS-201 neonatal human dermal fibroblast) to evaluate the effect of drug-loaded nanofibers. Nanofibers were cut in to the same shape and weighted to 4 mg (triplicate). They were pre-soaked in 1 mL of ethanol for 10 min. Samples were exposed to UV light for 45 min (each side). Fibroblast cells were cultured in 24 well-plates at density of 1×10^5 (cell/mL). After reaching to 90% confluence, 2 mL of fibroblast culture medium was added to each of the wells and the dressings. Afterwards, the cells were incubated at 37° C. for 24 h. Cell viability was determined using MTT assay after removal of dressings. Each well received 500 μL of 1:10 (v/v) MTT and fibroblast medium solution. Subsequently, after 2 h incubation at 37° C., the culture medium with the MTT solution were aspirated and replaced by 500 μL DMSO. Finally, 100 μL aliquots from each well (in triplicate) were transferred to 96-well plates and viability of cells was evaluated using spectrophotometer at 570 nm wavelength (PowerWave™ XS2 Microplate Spectrophotometer, BioTek Instruments Inc., Canada).

[2] = tested on: Staphylococcus aureus (S. aureus—ATCC 29213); experiment: Antibacterial test by colony counting method, S. aureus; conditions: for logarithm reduction of bacteria / percentage reduction of bacteria: S. aureus ~8 Log CFU/mL
Method: (§1) The antibacterial activity of the nanofiber mats was tested by colony counting method against Staphylococcus aureus (S. aureus) and E. coli, which are commonly found on burn wounds. For the antibacterial studies, logarithmic-phase cultures were prepared by initially suspending several colonies in phosphate buffered saline (PBS, 0.1 M, pH 7.4) at a density equivalent to a 0.5 McFarland standard of 1×10^8 colony forming units (CFU) mL^−1 and then diluted 100 times to 1×10^6 CFU mL^−1. 15 μL of the diluted E-coli and S. aureus suspension was further diluted into 45 mL cation-supplemented MuellerHinton (MH) broth and TSB, respectively. After culturing in the incubator at 37° C. for overnight, the concentration of bacteria went up to 10^8 CFU mL^−1. 2 mL of bacteria suspension was added to 4 mg of nanofibers and incubated. At the predetermined contact times, 150 μL of bacteria culture was taken from the flask, neutralized, and decimal serial dilutions with PBS were repeated with each initial sample. 30 μL of the diluted sample was then spread onto four zones of a Tryptone Soya agar plate (CM 0131, OXOID). After incubation of the plates at 37° C. for 18 h, the number of viable bacteria (colonies) was counted manually for control (A, bacteria suspension without sample) and BTAC-loaded nanofibers (B). Bacteria reduction was reported as percentage and Log 10. The percentage reduction of bacteria (%)=(A−B)/A×100; and logarithm reduction=log(A/B).

[3] = tested on: Escherichia coli (E-coli—ATCC 25922); experiment: Antibacterial test by colony counting method, E. coli; conditions: for logarithm reduction of bacteria / percentage reduction of bacteria: E. coli ~8 Log CFU/mL
Method: as §1

## CCCCCCCCCCCCCC[N+](C)(C)Cc1ccccc1 [BTAC, benzyl dimethyl tetradecyl ammonium chloride]
[1]
  fibroblast cell viability: 55.2±4.0
[2]; contact time 5 min
  logarithm reduction of bacteria: 1.4 ± 0.2 Log10
  percentage reduction of bacteria: 96.1 ± 0.2%
[2]; contact time 10 min
  logarithm reduction of bacteria: 1.8 ± 0.3 Log10
  percentage reduction of bacteria: 98.5 ± 0.9%
[2]; contact time 20 min
  logarithm reduction of bacteria: 8.9 Log10
  percentage reduction of bacteria: 100.0%
[2]; against S. aureus
  time to 100% bacteria inhibition: < 60 min
[3]; contact time 5 min
  logarithm reduction of bacteria: 1.3 ± 0.0 Log10
  percentage reduction of bacteria: 95.3 ± 0.3%
[3]; contact time 10 min
  logarithm reduction of bacteria: 1.4 ± 0.1 Log10
  percentage reduction of bacteria: 96.0 ± 0.2%
[3]; contact time 20 min
  logarithm reduction of bacteria: 1.9 ± 0.1 Log10
  percentage reduction of bacteria: 98.8 ± 0.5%
[3]; contact time 30 min
  logarithm reduction of bacteria: 8.9 Log10
  percentage reduction of bacteria: 100.0%
[3]; against E. coli
  time to 100% bacteria inhibition: < 60 min
